In one data set the test system is sodium channel. The data set can be described thus: Guanidine influx assay. Type of data set: cell-based, human or rat. The following applies: known cell line that expresses a sodium channel; read-out: IC50 Activity Level. The source says: This example describes an in vitro assay for testing and profiling test agents against human or rat sodium channels stably expressed in cells of either an endogenous or recombinant origin. The assay is also useful for determining the IC50 of a sodium channel blocking compound. The assay is based on the guanidine flux assay described by Reddy, N. L., et al., J. Med. Chem. (1998), 41(17):3298-302.
The guanidine influx assay is a radiotracer flux assay used to determine ion flux activity of sodium channels in a high-throughput microplate-based format. The assay uses ^14C-guanidine hydrochloride in combination with various known sodium channel modulators, to assay the potency of test agents. Potency is determined by an IC50 calculation. Selectivity is determined by comparing potency of the compound for the channel of interest to its potency against other sodium channels (also called ‘selectivity profiling’).
Each of the test agents is assayed against cells that express the channels of interest. Voltage gated sodium channels are either TTX sensitive or insensitive. This property is useful when evaluating the activities of a channel of interest when it resides in a mixed population with other sodium channels. The following Table 1 summarizes cell lines useful in screening for a certain channel activity in the presence or absence of TTX.
It is also possible to employ recombinant cells expressing these sodium channels. Cloning and propagation of recombinant cells are known to those skilled in the art (see, for example, Klugbauer, N, et al., EMBO J. (1995), 14(6):1084-90; and Lossin, C., et al., Neuron (2002), 34, pp. 877-884).
Cells expressing the channel of interest are grown according to the supplier or in the case of a recombinant cell in the presence of selective growth media such as G418 (Gibco/Invitrogen). The cells are disassociated from the culture dishes with an enzymatic solution (1×) Trypsin/EDTA (Gibco/Invitrogen) and analyzed for density and viability using haemocytometer (Neubauer). Disassociated cells are washed and resuspended in their culture media then plated into Scintiplates (Beckman Coulter Inc.) (approximately 100,000 cells/well) and incubated at 37° C./5% CO2. for 20-24 hours. After an extensive wash with Low sodium HEPES-buffered saline solution (LNHBSS) (150 mM Choline Chloride, […] (Sigma), 1 mM Calcium Chloride, 5 mM Potassium Chloride, 1 mM Magnesium Chloride, 10 mM Glucose) agents diluted with LNHBSS are added to each well. (Varying concentrations of test agent may be used). The activation/radiolabel mixture contains aconitine (Sigma) to increase the percentage of time that the sodium channels are open, and ^14C-guanidine hydrochloride (ARC) to measure flux through the voltage-gated sodium channels.
After loading the cells with test agent and activation/radiolabel mixture, the Scintiplates are incubated at ambient temperature. Following the incubation, the Scintplates are extensively washed with LNHBSS supplemented with guanidine (Sigma). The Scintiplates are dried and then counted using a Wallac MicroBeta TriLux (Perkin-Elmer Life Sciences). The ability of the test agent to block sodium channel activity is determined by comparing the amount of ^14C-guanidine present inside the cells expressing the different sodium channels.
The IC50 value of a test agent for a specific sodium channel may be determined using the above general method. […] Typically the mid-point concentration of test agent is set at 1 μM, and sequential concentrations of half dilutions greater or smaller are applied (e.g. 0.5 μM; 5 μM and 0.25 μM; 10 μM and 0.125 μM; 20 μM etc.). The IC50 curve is calculated using the 4 Parameter Logistic Model or Sigmoidal Dose-Response Model formula (fit=(A+((B−A)/(1+((C/x)^D)))).
The fold selectivity, factor of selectivity or multiple of selectivity, is calculated by dividing the IC50 value of the test sodium channel by the reference sodium channel, for example, NaV1.5. […]

Data set [1] relates to inactivated state of the channel of interest (sodium channel). Description: Electrophysiological assay (whole cell voltage clamp). The following applies: affinity for the inactivated state of the channel. Type of data set: cell-based. Here is the method: Cells expressing the channel of interest are cultured in DMEM growth media (Gibco) with 0.5 mg/mL G418, +/−1% PSG, and 10% heat-inactivated fetal bovine serum at 37° C. and 5% CO2. For electrophysiological recordings, cells are plated on 10 mm dishes.
Whole cell recordings are examined by established methods of whole cell voltage clamp (Bean et al., op. cit.) using an Axopatch 200B amplifier and Clampex software (Axon Instruments, Union City, Calif.). All experiments are performed at ambient temperature. Electrodes are fire-polished to resistances of 2-4 Mohms Voltage errors and capacitance artifacts are minimized by series resistance compensation and capacitance compensation, respectively. Data are acquired at 40 kHz and filtered at 5 kHz. The external (bath) solution consists of: NaCl (140 mM), KCl (5 mM), CaCl2 (2 mM), MgCl2 (1 mM), HEPES (10 mM) at pH 7.4. The internal (pipette) solution consists of (in mM): NaCl (5), CaCl2 (0.1), MgCl2 (2), CsCl (10), CsF (120), HEPES (10), EGTA (10), at pH 7.2.
To estimate the steady-state affinity of compounds for the resting and inactivated state of the channel (Kr and Ki, respectively), 12.5 ms test pulses to depolarizing voltages from −60 to +90 m V from a holding potential of −120 m V is used to construct current-voltage relationships (I-V curves). A voltage near the peak of the IV-curve (−30 to 0 m V) is used as the test pulse throughout the remainder of the experiment. Steady-state inactivation (availability) curves are then constructed by measuring the current activated during a 8.75 ms test pulse following 1 second conditioning pulses to potentials ranging from −120 to −10 mV.
The steady-state voltage-dependence of binding of a compound to a sodium channel is determined by measuring the blockage of the ionic current at two holding potentials. Binding to rested-state channels is determined by using a holding potential of −120 mV, so that maximal availability is achieved. Binding to inactivated-state channels is evaluated at a holding potential such that only 10% of the channels are available to open. The membrane potential is held at this voltage for at least 10 seconds so that drug binding can equilibrate.
The apparent dissociation constant at each voltage is calculated with the equation:
[formula] where Kd is the dissociation constant (either Kr or Ki), and [Drug] is the concentration of the test compound.
The Example numbers provided in Table 3 correspond to the Examples herein: […]

A further data set concerns the target T1, CYP3A4 (Homo sapiens, UniProt P08684).
T1 construct: purchased Invitrogen Corporation (Vivid CYP450 Screening Kit)
Description: Cytochrome P450 (CYP450) inhibition assay, fluorescence-based. Format: in vitro ADME. The settings on record: recombinant CYP3A4 (P450 Baculosomes), probe Vivid substrate (fluorogenic).

The target of another data set is CYP2C19 (Homo sapiens, UniProt P33261).
In the next data set the target is CYP2C9 (Homo sapiens, UniProt P11712).
Another data set deals with CHO-K1 (Nav1.4) (Cricetulus griseus, UniProt A0A9J7H6F9). Type of data set: cell-based, Chinese Hamster.
A further data set addresses SK-N-BE2C (Nav1.8) (Homo sapiens, UniProt Q9Y5Y9). Type of data set: cell-based.
The subject of a further data set is L6 (Nav1.4 and 1.5). Type of data set: cell-based, rat.
The target in the next data set is PC12 (Nav1.2) (Rattus norvegicus, UniProt P04775).
The subject of data set [2] is SH-SY5Y (Nav1.9 and Nav1.7). Format: cell-based, Human.

The values that follow come from patent US8101647B2, “Spiro-oxindole compounds and their use as therapeutic agents” (Xenon Pharmaceuticals Inc., priority 2008, dated 2012).

pIC50, pKi: −log10 of the molar value.

T1 sequence (P08684 whole entry): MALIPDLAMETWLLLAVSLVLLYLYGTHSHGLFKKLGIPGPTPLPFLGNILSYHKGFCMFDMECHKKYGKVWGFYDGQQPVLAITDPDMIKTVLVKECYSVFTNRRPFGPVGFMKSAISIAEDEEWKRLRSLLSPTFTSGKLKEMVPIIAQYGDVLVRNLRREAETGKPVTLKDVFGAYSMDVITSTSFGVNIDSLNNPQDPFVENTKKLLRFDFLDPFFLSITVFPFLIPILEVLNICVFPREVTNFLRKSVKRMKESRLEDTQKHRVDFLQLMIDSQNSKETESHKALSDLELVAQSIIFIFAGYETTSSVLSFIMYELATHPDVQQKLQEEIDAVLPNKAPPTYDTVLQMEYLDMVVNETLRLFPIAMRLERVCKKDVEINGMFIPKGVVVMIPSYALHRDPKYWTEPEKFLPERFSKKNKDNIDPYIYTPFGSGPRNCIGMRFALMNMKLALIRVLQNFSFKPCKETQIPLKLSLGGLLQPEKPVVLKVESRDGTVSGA
Chain of CYP2C9 (P11712 whole entry): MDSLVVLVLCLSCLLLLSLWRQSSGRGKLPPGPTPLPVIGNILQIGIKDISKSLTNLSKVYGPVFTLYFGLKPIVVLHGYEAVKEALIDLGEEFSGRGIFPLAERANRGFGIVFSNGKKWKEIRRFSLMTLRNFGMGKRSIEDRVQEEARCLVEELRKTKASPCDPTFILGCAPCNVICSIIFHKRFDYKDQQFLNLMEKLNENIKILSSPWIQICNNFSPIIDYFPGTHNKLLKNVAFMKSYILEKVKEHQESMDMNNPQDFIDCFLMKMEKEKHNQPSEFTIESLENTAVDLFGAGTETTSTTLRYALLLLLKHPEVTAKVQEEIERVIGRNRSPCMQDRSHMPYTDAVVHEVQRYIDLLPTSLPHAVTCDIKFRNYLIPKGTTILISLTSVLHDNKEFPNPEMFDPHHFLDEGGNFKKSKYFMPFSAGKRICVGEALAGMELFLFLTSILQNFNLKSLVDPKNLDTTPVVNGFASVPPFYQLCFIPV
Chain of CYP2C19 (P33261 whole entry): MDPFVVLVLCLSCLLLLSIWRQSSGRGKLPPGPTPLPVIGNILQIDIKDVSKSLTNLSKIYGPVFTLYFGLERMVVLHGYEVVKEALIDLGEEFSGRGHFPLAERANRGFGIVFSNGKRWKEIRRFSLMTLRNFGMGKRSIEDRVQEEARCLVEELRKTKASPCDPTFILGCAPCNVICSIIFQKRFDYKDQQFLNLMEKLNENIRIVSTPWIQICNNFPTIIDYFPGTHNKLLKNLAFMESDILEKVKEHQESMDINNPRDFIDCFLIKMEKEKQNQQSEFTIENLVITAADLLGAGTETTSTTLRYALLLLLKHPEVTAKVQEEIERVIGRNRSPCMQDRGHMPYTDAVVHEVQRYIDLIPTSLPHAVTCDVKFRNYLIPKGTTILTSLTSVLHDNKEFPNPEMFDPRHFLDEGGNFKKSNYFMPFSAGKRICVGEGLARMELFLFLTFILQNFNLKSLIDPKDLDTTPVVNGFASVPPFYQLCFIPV
Chain of CHO-K1 (Nav1.4) (A0A9J7H6F9 1-1930): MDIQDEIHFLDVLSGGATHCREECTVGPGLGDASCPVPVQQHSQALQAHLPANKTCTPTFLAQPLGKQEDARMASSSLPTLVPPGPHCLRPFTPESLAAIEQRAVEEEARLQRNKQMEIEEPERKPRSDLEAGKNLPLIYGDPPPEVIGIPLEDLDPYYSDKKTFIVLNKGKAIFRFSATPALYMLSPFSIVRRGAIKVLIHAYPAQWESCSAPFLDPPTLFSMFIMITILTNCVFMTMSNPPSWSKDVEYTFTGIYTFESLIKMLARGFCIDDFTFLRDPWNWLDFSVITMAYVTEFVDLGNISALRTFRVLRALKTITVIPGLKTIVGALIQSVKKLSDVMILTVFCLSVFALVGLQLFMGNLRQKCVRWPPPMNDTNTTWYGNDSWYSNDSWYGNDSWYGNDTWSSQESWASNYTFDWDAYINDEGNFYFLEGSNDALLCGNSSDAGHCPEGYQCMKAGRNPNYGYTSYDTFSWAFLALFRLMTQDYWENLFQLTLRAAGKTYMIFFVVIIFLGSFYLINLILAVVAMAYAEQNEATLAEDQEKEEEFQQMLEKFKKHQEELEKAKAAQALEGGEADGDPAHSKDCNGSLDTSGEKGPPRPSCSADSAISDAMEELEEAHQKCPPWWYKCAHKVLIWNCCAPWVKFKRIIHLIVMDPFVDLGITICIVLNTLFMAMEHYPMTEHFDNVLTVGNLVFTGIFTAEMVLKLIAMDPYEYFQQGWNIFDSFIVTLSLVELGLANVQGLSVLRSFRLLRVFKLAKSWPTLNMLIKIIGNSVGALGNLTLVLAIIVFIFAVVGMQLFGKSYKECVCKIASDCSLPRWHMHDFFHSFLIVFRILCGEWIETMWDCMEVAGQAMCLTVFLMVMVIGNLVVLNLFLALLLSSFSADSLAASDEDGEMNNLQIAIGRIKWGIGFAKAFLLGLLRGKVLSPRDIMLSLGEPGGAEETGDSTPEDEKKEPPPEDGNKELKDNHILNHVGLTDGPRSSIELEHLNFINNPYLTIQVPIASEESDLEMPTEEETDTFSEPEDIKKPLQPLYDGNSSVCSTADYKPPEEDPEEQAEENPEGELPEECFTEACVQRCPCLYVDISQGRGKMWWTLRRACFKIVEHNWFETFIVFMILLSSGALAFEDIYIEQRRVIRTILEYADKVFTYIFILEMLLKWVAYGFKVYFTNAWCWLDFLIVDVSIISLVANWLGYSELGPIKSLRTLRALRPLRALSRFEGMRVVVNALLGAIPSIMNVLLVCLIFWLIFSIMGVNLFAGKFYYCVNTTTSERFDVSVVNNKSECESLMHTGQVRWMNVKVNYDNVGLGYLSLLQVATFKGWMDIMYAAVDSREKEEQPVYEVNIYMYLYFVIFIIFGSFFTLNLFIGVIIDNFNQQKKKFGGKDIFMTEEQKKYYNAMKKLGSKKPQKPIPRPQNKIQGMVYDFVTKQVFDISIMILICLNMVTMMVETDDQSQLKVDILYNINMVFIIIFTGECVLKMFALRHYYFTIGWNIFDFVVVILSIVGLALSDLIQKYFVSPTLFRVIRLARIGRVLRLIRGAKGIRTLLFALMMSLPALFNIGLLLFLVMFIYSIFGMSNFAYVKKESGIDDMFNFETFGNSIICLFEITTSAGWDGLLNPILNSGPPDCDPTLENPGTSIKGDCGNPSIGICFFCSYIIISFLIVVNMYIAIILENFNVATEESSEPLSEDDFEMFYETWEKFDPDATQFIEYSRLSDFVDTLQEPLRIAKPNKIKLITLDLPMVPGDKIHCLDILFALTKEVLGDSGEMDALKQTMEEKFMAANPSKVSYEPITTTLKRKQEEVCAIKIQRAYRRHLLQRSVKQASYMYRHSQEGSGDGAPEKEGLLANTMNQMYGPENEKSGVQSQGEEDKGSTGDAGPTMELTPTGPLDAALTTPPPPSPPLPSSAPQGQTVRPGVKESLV

The term pIC50 denotes the negative decadic logarithm of the IC50, by convention in mol/L. What is called melting point is the temperature of the solid-liquid transition. As usually defined, the pKi is the Ki on a negative log10 scale, so that one unit is a factor of ten. For orientation: inhibition means how much of the control response was suppressed. `NC(=O)COc1ccc(CN2C(=O)C3(COc4cc5c(cc43)OCCO5)c3ccccc32)cc1` (stereo not shown) [Example 13.2, 2-{4-[(2′-oxo-2,3-dihydrospiro[furo[2,3-g][1,4]benzodioxine-8,3′-indol]-1′(2′H)-yl)methyl]phenoxy}acetamide] displayed a melting point of 225 to 227 °C. For the same molecule, in the data set on sodium channel, the pIC50 was 7.00 to 9.00. Further, the pKi in [1] is below 6.52. For the same molecule, the inhibition at 10 µM at CYP3A4 was above 50%.
Molecule `CN(C)CCOc1ccc(CN2C(=O)C3(COc4cc5c(cc43)OCCO5)c3ccccc32)cc1` (stereo not shown) [Example 13.4, 1′-{4-[2-(dimethylamino)ethoxy]benzyl}-2,3-dihydrospiro[furo[2,3-g][1,4]benzodioxine-8,3′-indol]-2′(1′H)-one] gave a melting point of 77 to 79 °C. For the same molecule, the negative-log IC50 (pIC50) in the data set with sodium channel was 6.00 to 7.00. In data set [1], this molecule had a negative-log Ki (pKi) above 6.52. The inhibition at 10 µM at CYP3A4 was above 50%.
`CCOC(=O)COc1cccc(CN2C(=O)C3(COc4cc5c(cc43)CCO5)c3ccccc32)c1` (stereo not shown) [Example 14, ethyl {3-[(2′-oxo-5,6-dihydrospiro[benzo[1,2-b:5,4-b′]difuran-3,3′-indol]-1′(2′H)-yl)methyl]phenoxy}acetate]: the melting point lay in the range of 45 to 46 °C. The pIC50 in the data set on sodium channel was 6.00 to 7.00. In data set [1], this molecule had a negative logarithm of the Ki (pKi) below 6.52. In addition, the inhibition at 10 µM at CYP3A4 was above 50%.
The molecule `O=C1N(Cc2ccc(OCCO)cc2)c2ccccc2C12COc1cc3c(cc12)OCCO3` (stereo not shown) [Example 15.3, 1′-[4-(2-hydroxyethoxy)benzyl]-2,3-dihydrospiro[furo[2,3-g][1,4]benzodioxine-8,3′-indol]-2′(1′H)-one] displayed a melting point of 196 to 197 °C. The molecule further gave a pKi in [1] below 6.52. For the same molecule, the inhibition at 10 µM at CYP3A4 was below 50%.
On to `O=C1N(C[C@H]2CCCO2)c2ccccc2C12COc1cc3c(cc12)C(=NO)CO3` (stereo partly drawn) [Example 24, 1′-[(2R)-tetrahydrofuran-2-ylmethyl]spiro[benzo[1,2-b:5,4-b′]difuran-3,3′-indole]-2′,5(1′H,6H)-dione 5-oxime], for which the melting point is 82 to 100 °C. Further, in the data set with sodium channel, the pIC50 was 5.00 to 6.00. Also, the inhibition at 10 µM at CYP3A4 was above 50%.
Molecule `N/C(CN1C(=O)C2(COc3cc4c(cc32)OCO4)c2ccccc21)=N\O` (stereo not shown) [Example 25, (1Z)-N′-hydroxy-2-(2′-oxospiro[furo[2,3-f][1,3]benzodioxole-7,3′-indol]-1′(2′H)-yl)ethanimidamide] showed a melting point of 235 to 238 °C. Also, in the data set with sodium channel, the pIC50 is 6.00 to 7.00. Moreover, the inhibition at 10 µM on CYP3A4 was above 50%.
In the case of `CC(=O)N1CCN(c2ccc(OCC3COC(Cn4ccnc4)(c4ccc(Cl)cc4Cl)O3)cc2)CC1` (stereo not shown) [Ketoconazole], the “% Inhibition in 10 μM assay” value on CYP2C19 is 65 +/− 10%.
Take `Nc1ccc(S(=O)(=O)Nc2ccnn2-c2ccccc2)cc1` [Sulfaphenazole]: at CYP2C9, the “% Inhibition in 10 μM assay” value is given as 50 +/− 15%.
With `NC1=N[C@H](O)[C@H]2[C@H]3O[C@]4(O)O[C@@H]([C@@H](O)[C@@]2(N1)[C@@H]4O)[C@]3(O)CO` [TTX, tetrodotoxin], the “block of increase in [14C] guanidine influx” value at CHO-K1 (Nav1.4) is recorded as “completely blocked using TTX”; on SK-N-BE2C (Nav1.8) it was “TTX partially blocked influx”; with L6 (Nav1.4 and 1.5) it was “partially blocked by TTX at 100 nM”; at PC12 (Nav1.2), “guanidine influx was completely”; in data set [2], “background was partially blocked”.
